Assay results taken from US20240241099A1, “METHOD FOR IDENTIFYING PI3 KINASE-ALPHA INHIBITORS” (UNIVERSITÄT BASEL, priority 2021, published 2024).

Legend:
PI3Kα = PI3Kα (Homo sapiens, UniProt P42336); assay: TR-FRET tracer displacement / time-dependent inhibition (IC50 shift) assay; assay type: binding
Protocol: The B-methyl substituted enone (2) and its corresponding moderately electrophilic derivative, β,β-dimethyl enone (3) were selected to explore the target space. A collection of compounds with pairwise matched linkers but either fast (2, 10-12) or moderate (3, 13-15) reacting Michael acceptors were synthesized (FIG. 3A). A time-dependent inhibition (IC50 shift) assay with five pre-incubation times was designed to identify covalent, time-dependent inhibitors. For compounds bearing a fast-reacting warhead (2, 10-12) a significant IC50 shift was observed also for compounds having their Michael acceptor at >4 Å from the cysteine thiol (FIG. 3E). […] The increased efficiency in covalent bond formation for 12 is due to the irreversible binding rather than an improvement in reversible affinity (see Ki values in FIG. 3D). […]
The library was tested for cellular potency on inhibition of PKB phorphorilation, considered as an indicator of inhibition of PI3K signaling. Time-resolved fluorescence resonance (TR-FRET) tracer displacement assay was used to determine the rate constant for irreversible inactivation (kinact) and the second order rate constant typically used to characterize the covalent binding of irreversible inhibitors to the target protein (kinact/Ki). […]

[1] = test system: AktSer473 phosphorylation in SKOV3 ovarian cancer cells; assay: Cellular washout study in SKOV3 cells, P-AktSer473 by immunoblot; assay type: cell-based; details: 2.5 μM for 2 hours, then washout
Protocol: (§1) The experiments were performed in triplicate; CNX-1351 was used as positive control (irreversible inhibitor) and PQR514 as negative control (reversible inhibitor). (b) Metabolic stability of 19, 22 and CNX-1351 using rat liver microsomes. The time-dependent loss of test items (1 μM) with liver microsomes (0.5 mg microsomal protein/mL) and the percentages of test item remaining after 60 minutes of incubation were measured, (n=2).
The experiments were performed in triplicate; CNX-1351 was used as positive control (irreversible inhibitor) and PQR514 as negative control (reversible inhibitor).
(§2) The library of acrylamide-containing compounds was evaluated for PI3K signaling in SKOV3 ovarian cancer cells. […] Inhibition of AktSer473 phosphorylation measured by immunoblot analysis was used as an indicator of inhibition of PI3K signaling. Cells were incubated with the drugs (2.5 μM each) for 2 hours.
as §2, with “enone-containing” for “acrylamide-containing”

[2] = test system: PKB phosphorylation on Ser473 in SKOV3 cells; assay: In-cell Western assay of PKB Ser473 phosphorylation in SKOV3 cells; assay type: cell-based; details: n = 3, read-out: pPKB S473 IC50
[3] = Metabolic stability in rat liver microsomes; assay type: in vitro ADME; details: rat liver microsomes 0.5 mg protein/mL, 1 μM, 60 minutes
Protocol: as §1
The metabolic stability of 19, 22 and CNX-1351 was evaluated in vitro in rat liver microsomes.

PI3Kα, sequence (P42336 whole entry): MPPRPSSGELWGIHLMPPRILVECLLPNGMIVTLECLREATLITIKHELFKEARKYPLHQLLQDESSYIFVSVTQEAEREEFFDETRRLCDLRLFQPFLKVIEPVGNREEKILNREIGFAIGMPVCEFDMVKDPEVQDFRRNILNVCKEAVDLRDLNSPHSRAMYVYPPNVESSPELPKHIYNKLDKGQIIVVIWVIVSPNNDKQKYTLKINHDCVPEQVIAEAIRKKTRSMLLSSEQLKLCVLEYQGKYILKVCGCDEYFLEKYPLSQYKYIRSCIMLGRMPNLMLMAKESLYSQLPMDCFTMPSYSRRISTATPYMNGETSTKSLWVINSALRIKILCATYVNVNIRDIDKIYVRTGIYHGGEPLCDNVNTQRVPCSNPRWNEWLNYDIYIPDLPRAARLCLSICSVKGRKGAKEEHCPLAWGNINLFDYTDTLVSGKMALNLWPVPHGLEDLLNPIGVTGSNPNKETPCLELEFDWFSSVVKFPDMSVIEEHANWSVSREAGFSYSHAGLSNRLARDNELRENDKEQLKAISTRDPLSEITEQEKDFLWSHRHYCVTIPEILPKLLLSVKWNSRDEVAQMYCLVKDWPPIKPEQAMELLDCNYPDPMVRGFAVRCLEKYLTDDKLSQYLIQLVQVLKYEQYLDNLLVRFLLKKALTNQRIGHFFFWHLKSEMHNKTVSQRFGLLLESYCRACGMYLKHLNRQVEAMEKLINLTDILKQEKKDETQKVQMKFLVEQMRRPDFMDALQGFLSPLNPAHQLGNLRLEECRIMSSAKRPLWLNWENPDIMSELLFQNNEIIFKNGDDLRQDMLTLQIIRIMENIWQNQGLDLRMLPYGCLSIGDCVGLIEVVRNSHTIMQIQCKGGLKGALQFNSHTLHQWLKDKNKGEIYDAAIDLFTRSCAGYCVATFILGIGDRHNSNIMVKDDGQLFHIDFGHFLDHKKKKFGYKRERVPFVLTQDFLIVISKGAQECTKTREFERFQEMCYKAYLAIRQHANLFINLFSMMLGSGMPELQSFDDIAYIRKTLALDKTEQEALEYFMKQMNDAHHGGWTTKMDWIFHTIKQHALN
PI3Kα, sequence (P27986 whole entry partner): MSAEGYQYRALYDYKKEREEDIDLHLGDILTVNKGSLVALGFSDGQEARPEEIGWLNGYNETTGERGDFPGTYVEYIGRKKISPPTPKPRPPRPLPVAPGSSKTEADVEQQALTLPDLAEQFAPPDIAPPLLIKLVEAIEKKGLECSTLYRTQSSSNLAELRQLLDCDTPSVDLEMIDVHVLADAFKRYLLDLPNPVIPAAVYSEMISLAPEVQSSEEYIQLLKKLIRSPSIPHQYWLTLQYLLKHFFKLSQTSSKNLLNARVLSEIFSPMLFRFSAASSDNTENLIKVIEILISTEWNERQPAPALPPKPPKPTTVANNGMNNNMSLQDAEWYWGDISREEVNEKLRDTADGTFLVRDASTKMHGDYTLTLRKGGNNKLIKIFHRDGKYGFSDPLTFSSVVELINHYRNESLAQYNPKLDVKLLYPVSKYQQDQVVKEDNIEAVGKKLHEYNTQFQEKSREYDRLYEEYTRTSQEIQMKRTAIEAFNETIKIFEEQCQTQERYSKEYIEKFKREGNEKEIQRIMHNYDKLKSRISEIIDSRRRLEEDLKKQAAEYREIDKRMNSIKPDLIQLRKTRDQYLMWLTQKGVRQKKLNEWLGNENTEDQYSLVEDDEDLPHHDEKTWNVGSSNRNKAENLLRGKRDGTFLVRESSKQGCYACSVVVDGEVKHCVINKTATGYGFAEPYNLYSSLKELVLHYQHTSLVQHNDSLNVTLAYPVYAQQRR

Row | SMILES | kinact/Ki, [nM^−1s^−1] (PI3Kα; TR-FRET efficiency of covalent bond formation) | kinact, [s^−1] (PI3Kα; TR-FRET rate constant for irreversible inactivation) | P-AktSer473 signaling after drug washout [1] | IC50 [2] | metabolic stability [3]
1 | CC(C)=CC(=O)CCC(=O)N1CCN(Cc2cc3nc(-c4cccc5[nH]ncc45)nc(N4CCOCC4)c3s2)CC1 [CNX-1351] | 1.73e-05 nM⁻¹ s⁻¹ | 0.000657 s⁻¹ | prolonged inhibition | 290 nM | rapidly metabolized
2 | Nc1ncc(-c2nc(N3CCOCC3)nc(N3CCOCC3)n2)c(C(F)F)n1 [PQR514] | – | – | immediately recovered | – | –
